Experimental data as given in patent US6737383B1, “Herbicidal oxadiazolidines” (priority 1999, dated 2004).

How the values were obtained:
giant foxtail = assay: Test B pre/postemergence giant foxtail; format: in vivo, Setaria faberii
In short: (§1)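 Test chemicals in a non-phytotoxic solvent mixture with surfactant were sprayed preemergence onto planted seeds and postemergence onto plants 2 to 18 cm tall (1- to 4-leaf stage). After twelve to sixteen days in a greenhouse, injury was visually rated against untreated controls from 0 (no effect) to 10 (complete control).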

surinam grass = assay: Test B pre/postemergence surinam grass; format: in vivo, Brachiaria decumbens
In short: as §1

rice = assay: Test B flood test rice; format: in vivo, Oryza sativa
In short: (§2)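 Read-out is a visual response score from 0 (no effect) to 10 (complete control), assigned by comparison with untreated controls. Treatment was applied at the 2-leaf stage, and plants stayed in the greenhouse for twelve to sixteen days before scoring.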

purple nutsedge = assay: Test B pre/postemergence purple nutsedge; format: in vivo, Cyperus rotundus
In short: as §1

crabgrass = assay: Test B pre/postemergence crabgrass; format: in vivo, Digitaria sanguinalis
In short: as §1

morningglory = assay: Test B pre/postemergence morningglory; format: in vivo, Ipomoea hederacea
In short: as §1

soybean = assay: Test B pre/postemergence soybean; format: in vivo, Glycine max
In short: as §1

velvetleaf = assay: Test B pre/postemergence velvetleaf; format: in vivo, Abutilon theophrasti
In short: as §1

pigweed = assay: Test B pre/postemergence pigweed; format: in vivo, Amaranthus retroflexus
In short: as §1

duck salad = assay: Test B flood test duck salad; format: in vivo, Heteranthera limosa
In short: as §2

blackgrass = assay: Test B pre/postemergence blackgrass; format: in vivo, Alopecurus myosuroides
In short: as §1

wild oat = assay: Test B pre/postemergence wild oat; format: in vivo, Avena fatua
In short: as §1

rape = assay: Test B pre/postemergence rape; format: in vivo, Brassica napus
In short: as §1

corn = assay: Test B pre/postemergence corn; format: in vivo, Zea mays
In short: as §1

bedstraw = assay: Test B pre/postemergence bedstraw; format: in vivo, Galium aparine; conditions: Preemergence; for Bedstraw plant response rating: scale of 0 to 10 where 0 is no effect and 10 is complete control; for Plant response rating, Bedstraw: scale 0 to 10 (0 no effect, 10 complete control)
In short: as §1

wheat = assay: Test B pre/postemergence wheat; format: in vivo, Triticum aestivum
In short: as §1

[1] = Postemergence, Rate 125 g/ha, scale of 0 to 10 where 0 is no effect and 10 is complete control
[2] = Postemergence, Rate 250 g/ha, scale of 0 to 10, 0 is no effect, 10 is complete control
[3] = Postemergence, Rate 500 g/ha, scale of 0 to 10 where 0 is no effect and 10 is complete control
[4] = Postemergence, Rate 1000 g/ha, scale 0 to 10 (0 no effect, 10 complete control)
[5] = Preemergence, Rate 125 g/ha, scale of 0 to 10 where 0 is no effect and 10 is complete control
[6] = Preemergence, Rate 250 g/ha, scale 0 to 10 (0 no effect, 10 complete control)
[7] = Preemergence, Rate 500 g/ha, scale of 0 to 10 where 0 is no effect and 10 is complete control
[8] = Rate 1000 g/ha, Preemergence, scale 0 to 10 (0 no effect, 10 complete control)
[9] = Pre-emergence, Rate 1000 g/ha, scale 0 to 10 (0 no effect, 10 complete control)
[10] = Rate 125 g/ha, under heading Pre-emergence, flood test species, visual evaluation after twelve to sixteen days
[11] = Rate 250 g/ha, Pre-emergence (flood test species), scale 0 to 10, 0 is no effect, 10 is complete control
[12] = Rate 500 g/ha, Pre-emergence section of Table B, 0 to 10 scale (0 no effect, 10 complete control)

CCOP(=O)(OCC)C(C)n1c(=O)on(C(=O)N(c2ccc(F)cc2)C(C)C)c1=O (stereo not shown) [Compound 617]
Plant response rating, Giant foxtail (giant foxtail; [1]): 0 | Giant foxtail plant response rating (giant foxtail; [2]): 4 | Plant response rating, Giant foxtail (giant foxtail; [3]): 0 | Giant foxtail plant response rating (giant foxtail; [4]): 6 | Giant foxtail plant response rating (giant foxtail; [5]): 9 | Plant response rating, Giant foxtail (giant foxtail; [6]): 9 | Plant response rating, Giant foxtail (giant foxtail; [7]): 9 | Plant response rating, Giant foxtail (giant foxtail; [8]): 10 | Plant response rating, B. signalgrass (surinam grass; [1]): 0 | B. signalgrass plant response rating (surinam grass; [2]): 0 | Plant response rating, B. signalgrass (surinam grass; [3]): 0 | B. signalgrass plant response rating (surinam grass; [4]): 3 | B. signalgrass plant response rating (surinam grass; [5]): 0 | Plant response rating, B. signalgrass (surinam grass; [6]): 4 | B. signalgrass plant response rating (surinam grass; [7]): 5 | Plant response rating, B. signalgrass (surinam grass; [8]): 8 | Rice plant response rating (rice; [9]): 0 | Rice plant response rating (0 to 10 scale, 0 is no effect, 10 is complete control) (rice; [10]): 0 | Rice plant response rating (rice; [11]): 0 | Rice plant response rating (rice; [12]): 0 | Plant response rating, Nutsedge (purple nutsedge; [1]): 0 | Plant response rating, Nutsedge (purple nutsedge; [3]): 0 | Nutsedge plant response rating (purple nutsedge; [4]): 0 | Nutsedge plant response rating (purple nutsedge; [5]): 0 | Plant response rating, Nutsedge (purple nutsedge; [6]): 0 | Plant response rating, Nutsedge (purple nutsedge; [7]): 5 | Plant response rating, Nutsedge (purple nutsedge; [8]): 8 | Plant response rating, Crabgrass (crabgrass; [1]): 0 | Crabgrass plant response rating (crabgrass; [2]): 2 | Plant response rating, Crabgrass (crabgrass; [3]): 0 | Crabgrass plant response rating (crabgrass; [4]): 7 | Plant response rating, Crabgrass (crabgrass; [6]): 5 | Plant response rating, Crabgrass (crabgrass; [7]): 8 | Plant response rating, Crabgrass (crabgrass; [8]): 8 | Plant response rating, Morningglory (morningglory; [1]): 0 | Morningglory plant response rating (morningglory; [2]): 0 | Plant response rating, Morningglory (morningglory; [3]): 3 | Morningglory plant response rating (morningglory; [4]): 6 | Morningglory plant response rating (morningglory; [5]): 0 | Plant response rating, Morningglory (morningglory; [6]): 0 | Plant response rating, Morningglory (morningglory; [7]): 0 | Plant response rating, Morningglory (morningglory; [8]): 0 | Plant response rating, Soybean (soybean; [1]): 1 | Soybean plant response rating (soybean; [2]): 3 | Soybean plant response rating (soybean; [4]): 7 | Soybean plant response rating (soybean; [5]): 0 | Plant response rating, Soybean (soybean; [6]): 0 | Plant response rating, Soybean (soybean; [7]): 0 | Plant response rating, Soybean (soybean; [8]): 1 | Plant response rating, Velvetleaf (velvetleaf; [1]): 0 | Velvetleaf plant response rating (velvetleaf; [2]): 0 | Velvetleaf plant response rating (velvetleaf; [4]): 2 | Velvetleaf plant response rating (velvetleaf; [5]): 0 | Plant response rating, Velvetleaf (velvetleaf; [6]): 0 | Plant response rating, Velvetleaf (velvetleaf; [7]): 0 | Plant response rating, Velvetleaf (velvetleaf; [8]): 0 | Plant response rating, Redroot pigweed (pigweed; [1]): 0 | Redroot pigweed plant response rating (pigweed; [2]): 0 | Redroot pigweed plant response rating (pigweed; [4]): 0 | Redroot pigweed plant response rating (pigweed; [5]): 0 | Plant response rating, Redroot pigweed (pigweed; [6]): 0 | Plant response rating, Redroot pigweed (pigweed; [7]): 0 | Plant response rating, Redroot pigweed (pigweed; [8]): 0 | Ducksalad plant response rating (duck salad; [9]): 0 | Ducksalad plant response rating (0 to 10 scale, 0 is no effect, 10 is complete control) (duck salad; [10]): 0 | Ducksalad plant response rating (duck salad; [11]): 0 | Ducksalad plant response rating (duck salad; [12]): 0 | Plant response rating, Blackgrass (blackgrass; [1]): 0 | Blackgrass plant response rating (blackgrass; [2]): 0 | Plant response rating, Blackgrass (blackgrass; [3]): 0 | Blackgrass plant response rating (blackgrass; [4]): 6 | Blackgrass plant response rating (blackgrass; [5]): 0 | Plant response rating, Blackgrass (blackgrass; [6]): 6 | Blackgrass plant response rating (blackgrass; [7]): 6 | Plant response rating, Blackgrass (blackgrass; [8]): 10 | Plant response rating, Wild oats (wild oat; [1]): 0 | Wild oats plant response rating (wild oat; [2]): 0 | Wild oats plant response rating (wild oat; [4]): 0 | Wild oats plant response rating (wild oat; [5]): 0 | Plant response rating, Wild oats (wild oat; [6]): 2 | Plant response rating, Wild oats (wild oat; [7]): 3 | Plant response rating, Wild oats (wild oat; [8]): 9 | Plant response rating, Rape (rape; [1]): 0 | Rape plant response rating (rape; [2]): 0 | Plant response rating, Rape (rape; [3]): 0 | Rape plant response rating (rape; [4]): 0 | Rape plant response rating (rape; [5]): 0 | Plant response rating, Rape (rape; [6]): 0 | Plant response rating, Rape (rape; [7]): 0 | Plant response rating, Rape (rape; [8]): 0 | Plant response rating, Corn (corn; [1]): 0 | Corn plant response rating (corn; [2]): 0 | Plant response rating, Corn (corn; [3]): 0 | Corn plant response rating (corn; [4]): 0 | Corn plant response rating (corn; [5]): 0 | Plant response rating, Corn (corn; [6]): 0 | Plant response rating, Corn (corn; [7]): 0 | Plant response rating, Corn (corn; [8]): 0 | Bedstraw plant response rating (bedstraw; Rate 125 g/ha): 0 | Plant response rating, Bedstraw (bedstraw; Rate 250 g/ha): 0 | Bedstraw plant response rating (bedstraw; Rate 500 g/ha): 0 | Plant response rating, Bedstraw (bedstraw; Rate 1000 g/ha): 0 | Plant response rating, Wheat (wheat; [1]): 0 | Wheat plant response rating (wheat; [2]): 0 | Wheat plant response rating (wheat; [4]): 0 | Wheat plant response rating (wheat; [5]): 0 | Plant response rating, Wheat (wheat; [6]): 0 | Plant response rating, Wheat (wheat; [7]): 0 | Plant response rating, Wheat (wheat; [8]): 2
